# Measured values as given in patent US9629786B2, “Monoterpene derivatives of chalcone or dihydrochalcone and their use as depigmenting agents” (PIERRE FABRE DERMO-COSMETIQUE, priority 2011, dated 2017).
# pIC50: −log10 of the molar value.
# Legend:
# fungal tyrosinase = conditions: monophenoloxidase activity on fungal tyrosinase; cited from earlier work
# plasmodial = conditions: cited from earlier work
# cancer cell line (lung) = conditions: cited from earlier work
# [1] = system: murine melanoma cell line B16-F10; experiment: Inhibition of melanin synthesis, colorimetric assay on B16-F10; assay type: cell-based; conditions: Mus musculus, B16-F10 cells
# Source text: Pharmacological Testing: Inhibition of Melanin Synthesis:
# We have developed a test for measuring melanin synthesis by using a colorimetric assay on the murine melanoma cell line B16-F10. This assay enables to test the depigmenting power of active ingredients.
# [2] = Stability of chalcone (cyclization to flavanone); assay type: physicochemical; conditions: for stability (cyclization to flavanone): purified / pure form
# Source text: More preferably, ? is a double bond, R1=H and R2=OH, that is to say the extract according to the invention is enriched with gymnochalcone. […] In fact, cyclization of chalcones to flavanone, upon addition of a hydroxyl group on 1,4-position in the carbonyl group by a Michael type reaction, which brings about instability of the chalcones, is not observed in this case.
# Thus preferably gymnochalcone will be used in the form of an extract of Helichrysum gymnocephalum.
Structure (SMILES),pIC50 [1],stability (cyclization to flavanone) [2],further results
"O=C(/C=C/c1ccccc1)c1c(O)cc(O)cc1O [2′,4′,6′-Trihydroxychalcone (II), 2′,4′,6′-Trihydroxychalcone]",,,pIC50 (fungal tyrosinase): 3.92
COc1cc(O)c(C(=O)CCc2ccccc2)c(O)c1[C@H]1C=C(C)CC[C@@H]1C(C)C [(−)-Methyl-linderatin],,,anti-plasmodial activity (plasmodial): anti-plasmodial activity
CC1=C[C@H](c2c(O)cc(O)c(C(=O)CCc3ccccc3)c2O)[C@H](C(C)C)CC1 [(−)-linderatin],,,cytotoxicity (cancer cell line (lung)): exhibited cytotoxicity
"OC[C@H]1O[C@@H](Oc2ccc(O)cc2)[C@H](O)[C@@H](O)[C@@H]1O [Arbutin, reference compound]",3.80,,
"CC1=CC(c2c(O)cc(O)c(C(=O)/C=C/c3ccccc3)c2O)C(C(C)(C)O)CC1 (stereo not shown) [Gymnochalcone, gymnochalcone]",4.77,cyclization is observed,stability in time ([2]; in the extract of Helichrysum gymnocephalum): stable in time
"COc1ccc(O)cc1 [Hydroquinone monomethyl ether, reference compound]",4.51,,
"O=c1cc(CO)occ1O [Kojic acid, reference compound]",2.62,,
"CC1=CC(c2c(O)cc(O)c(C(=O)CCc3ccccc3)c2O)C(C(C)C)CC1 (stereo not shown) [Linderatin, linderatin]",5.30,stable in such form,
"COc1cc(O)c(C(=O)CCc2ccccc2)c(O)c1C1C=C(C)CCC1C(C)C (stereo not shown) [Methyllinderatin, methyllinderatin]",5.22,stable in such form,
